# Assay results published in publication PMC6013247, “Preclinical characterization of INCB053914, a novel pan-PIM kinase inhibitor, alone and in combination with anticancer agents, in models of hematologic malignancies” (PLoS ONE, 2018).
# Tests used:
# Pfeiffer DLBCL cells = assay: In vitro proliferation of Pfeiffer DLBCL cells, single agents and combination; format: cell-based
# Experimental: Synergistic effects of INCB053914 in combination with INCB050465, cytarabine, or itacitinib, were assessed based on the Bliss independence model. In this model, the expected additive effect, with the assumption that concentration dependent effects of 2 drugs (A and B) are independent, is given by the equation EIND = EA + EB – EA •EB, where 0 ≤ EIND ≤ 1; EA and EB are the magnitudes of effects of A and B alone at given concentrations.
# The interaction between effects of A and B can be described by the equation Combination Index = EIND/ EOBS, where EOBS is the observed combined effect of A + B expressed as a probability (0 ≤ EOBS ≤ 1). If the point estimate of Combination Index and its upper 97.5% confidence limit are <1 then the combined effect is synergistic; if the 2-sided 95% confidence intervals (CI) encompass 1 then the combined effect is additive (ie, independent); if the point estimate of Combination Index and the lower 2.5% confidence limit are >1 then the combined effect of A + B are antagonistic.
# [1] = system: PIM isozyme expression in Pfeiffer DLBCL cells; assay: PIM isozyme expression in Pfeiffer DLBCL cells; format: cell-based
# [2] = system: human KG-1 AML xenografts; assay: Tumor growth in KG-1 (AML) xenograft, combination with cytarabine; format: in vivo, mouse; details: KG-1 (AML) tumors
# Experimental: Female immune compromised (severe combined immunodeficiency [SCID]) mice (5–9 weeks of age; Charles River Laboratories, Wilmington, Massachusetts) were inoculated with MOLM-16, KG-1, or KMS-12-BM cells. A cell suspension in Dulbecco’s phosphate-buffered saline (DPBS) (1 × 10^8 cells/ml) was mixed 1:1 (v/v) with matrigel, and 200 μl was injected subcutaneously into the flank of each mouse. […] The treatment of tumor-bearing mice started 7 to 24 days after tumor inoculation for efficacy studies and approximately 14 to 27 days after tumor inoculation for pharmacodynamic studies.
# Synergistic effects of INCB053914 in combination with INCB050465, cytarabine, or itacitinib, were assessed based on the Bliss independence model [56, 57]. In this model, the expected additive effect, with the assumption that concentration dependent effects of 2 drugs (A and B) are independent, is given by the equation EIND = EA + EB – EA •EB, where 0 ≤ EIND ≤ 1; EA and EB are the magnitudes of effects of A and B alone at given concentrations.
# The interaction between effects of A and B can be described by the equation Combination Index = EIND/ EOBS, where EOBS is the observed combined effect of A + B expressed as a probability (0 ≤ EOBS ≤ 1). […]
# INA-6 cells = assay: STAT3(Y705) and PIM kinase substrate phosphorylation in INA-6 cells in culture; format: cell-based; details: INA-6 cells treated for 24 hours in culture
# Experimental: Fig S1. Effects of INCB053914 on STAT3(Y705) and PIM kinase substrate phosphorylation in INA-6 cells treated for 24 hours in culture.
# [3] = system: pBAD, pSTAT3 and MYC in INA-6 (MM) tumors; assay: pBAD, pSTAT3 and MYC levels in INA-6 (MM) tumors; format: in vivo, mouse; details: INA-6 (MM) tumors in mice
# Experimental: The PI3Kδ inhibitor INCB050465 (10 mg/kg once a day orally) was evaluated in combination with INCB053914 (30 mg/kg once a day orally) in mice bearing Pfeiffer (DLBCL) xenografts, a model sensitive to PI3Kδ inhibition (eight mice/group). Cytarabine was administered via intraperitoneal injection at a standard dose of 20 mg/kg twice a week, in combination with oral INCB053914 at a submaximally efficacious dose of 20 mg/kg twice a day for 12 days in mice bearing human KG-1 AML xenografts, a cytarabine-sensitive model (eight mice/group). The oral JAK1-selective inhibitor itacitinib (60 mg/kg twice a day orally) was assessed in combination with INCB053914 (100 mg/kg twice a day orally) after 8 days of administration to SCID mice bearing INA-6 (MM) xenografts (eight mice/group), a model sensitive to JAK inhibition.
compound,measurement,setting,value
CCOc1c([C@H](C)n2nc(C)c3c(N)ncnc32)cc(Cl)c(F)c1[C@@H]1CNC(=O)C1 [INCB050465],"proliferation of Pfeiffer cells, single agent",Pfeiffer DLBCL cells,inhibited
same,expression of all three PIM isozymes relative to baseline,[1],concentration-dependent increases
same,increase in PIM2 expression relative to baseline,[1],~ 2.5 fold
"Nc1ccn([C@@H]2O[C@H](CO)[C@@H](O)[C@@H]2O)c(=O)n1 [cytarabine, Cytarabine, reference compound]","tumor growth, single agent",[2],inhibited
N#CC[C@H](C1CCCC1)n1cc(-c2ncnc3[nH]ccc23)cn1 [ruxolitinib],PIM kinase substrate phosphorylation,INA-6 cells,unaffected
"N#CCC1(n2cc(-c3ncnc4[nH]ccc34)cn2)CN(C2CCN(C(=O)c3ccnc(C(F)(F)F)c3F)CC2)C1 [itacitinib, reference compound]",MYC levels,[3],decreased MYC levels
same,level of pSTAT3,[3],decrease
same,PIM kinase substrate phosphorylation,INA-6 cells,unaffected
